# In patent US9782522B2, “Compositions and methods for treating and preventing neointimal stenosis” (Yale University, priority 2011, dated 2017):
# B1: Let-7b/c: let-7b and let-7c miRNAs expressed from lentivirus vector (pre-let-7b, pre-let-7c) (nucleic acid, listed as Homo sapiens)
# chain: GCAUCCGGGUUGAGGUAGUAGGUUGUAUGGUUUAGAGUUACACCCUGGGAGUUAACUGUACAACCUUCUAGCUUUCCUUGGAGC
# Tests used:
# mammary epithelial cells = details: cited from earlier work
# [1] = doses of 40 mg and 80 mg; cited from earlier work
# [2] = test system: TGF-β types I and II receptors; details: cited from earlier work
# [3] = test system: TGF-β1-induced smad2/3 nuclear localization; details: cited from earlier work
# Smad2/3 phosphorylation = details: cited from earlier work
# let-7 family miRNAs = assay: qRT-PCR let-7 miRNA expression in endothelial cells; format: cell-based, human; details: normal EC (HUAEC); U0126 at 10 μM
# Experimental: Quantitative PCR analysis of 88 miRNA was performed using Human Cell Differentiation & Development RT^2 Profiler™ PCR Arrays (MAH-103A, QIAGEN) following the manufacturer's protocol. Validation of microRNA array data was performed with the RT^2 miRNA qPCR Assays and RT-PCR Primer Sets according to the manufacturer's instructions (QIAGEN). Primers for human mature let-7a (MPH00001A), let-7b (MPH00002A), let-7c (MPH00003A), let-7d (MPH00004A), let-7e (MPH00005A), let-7f (MPH00006A), let-7g (MPH00007A), mir-98 (MPH00480A), SNORD47 (MPH01660A) were from QIAGEN. Primers for mouse mature let-7a (MPM00483A), let-7b (MPM00484A), let-7c (MPM485A), let-7d (MPM00486A), let-7e (MPM00487A), let-7f (MPM00488A), let-7g (MPM00489A), let-7i (MPM00490A), mir-98 (MPM00875A) were from QIAGEN. Individual miRNA expression was normalized in relation to expression or small nuclear U6B RNA, a commonly used internal control for miRNA quantification assay. PCR amplification consisted of 10 min of an initial denaturation step at 95° C., followed by 45 cycles of PCR at 95° C. for 30 s, 60° C. for 30 s.
# Recombinant human FGF2 (R&D) and TGFβ1 (Peprotech) were reconstituted in 0.1% BSA/PBS. U0126 (Sigma), a MEK inhibitor, was reconstituted in DMSO and used at a final concentration of 10 μM. […]
# HUAEC = assay: qRT-PCR mRNA expression of TGFβ signaling and Endo-MT markers in endothelial cells; format: cell-based, human; details: primary EC in vitro following FRS2 knockdown; lentiviral let-7 expression
# Text: Human 293T T17 cells (ATCC CRL-11268) were maintained in Dulbecco's modified Eagle's medium (Gibco) with 10% fetal bovine serum (Invitrogen) and penicillinstreptomycin (Gibco). Primary human mammary epithelial cells (HuMEC, Invitrogen), were maintained in HuMEC basal serum free medium with HuMEC supplement (Invitrogen 12754-016) and bovine pituitary extract (Invitrogen 13028-014). Human foreskin cells (ATCC CRL-1079Sk) were maintained in Minimum Essential Medium (ATCC) with 10% fetal bovine serum (Hyclone), β-mercaptoethanol (Sigma), and penicillin-streptomycin (Gibco). Primary human atrial cells (passage 3-5; gift from Y. Qyang, Yale University School of Medicine) were maintained in Dulbecco's modified Eagle's medium (Gibco) with 10% fetal bovine serum (Invitrogen), L-glutamine (Gibco), Sodium pyruvate (Gibco), Non-essential amino acid (Gibco), and penicillin-streptomycin (Gibco). HUAEC (human umbilical artery endothelial cells, passage 5-10, Lonza) were cultured in EBM-2 supplemented with EGM-2-MV bullet kit (Lonza). HUVEC (human umbilical vein endothelial cells, passage 3-7, Yale Vascular Biology and Therapeutics) were cultured in M199 with ECGS, supplemented with 20% FBS (Sigma), L-glutamine (Gibco), and penicillin-streptomycin (Gibco). Culture vessels were coated with 0.1% gelatin (Sigma) for 30 min at 37° C. immediately prior to cell seeding. Primary mouse endothelial cells were isolated from the heart using rat anti-mouse CD31 antibody and Dynabeads (Invitrogen) as previously described (Partovian C, et al. Mol Cell. 32(1):140 (2008)).
# RNA was isolated using RNeasy® plus Mini Kit (Qiagen) and converted to cDNA using iScript™ cDNA synthesis kit (Bio-Rad). Quantitative real-time PCR (qRT-PCR) was performed using Bio-Rad […] (Bio-Rad) by mixing equal amount of eDNAs, iQ™ SYBR® Green Supermix (Bio-Rad) and gene specific primers. All reactions were done in a 25 μl reaction volume in duplicate. Data were normalized to endogenous β-actin. Values are expressed as fold change in comparison to control. Mouse TGFβ gene expression was quantified via qRT-PCR with TaqMan® Gene Expression Assays (Mm00441726_m1; Applied Biosystems) and HPRT (Mm00441258_1; Applied Biosystems) as endogenous control followed the manufacturer's recommendation. Quantitative PCR analysis of 84 TGFβ and epithelial to mesenchymal transition (EMT) related genes were performed using Human TGFβ BMP signaling pathway (PAHS-035D, QIAGEN) and Human Epithelial to Mesenchymal Transition (PAHS-090D, QIAGEN) RT^2 Profiler™ PCR Arrays following the manufacturer's protocol. RT^2 Profiler™ PCR arrays were run on a Bio-Rad CFX96 machine (Bio-Rad). Duplicate arrays were run per condition for control and FRS2 knockdown human umbilical arterial endothelial cells (HUAEC). Data analysis was performed using the manufacturer's integrated web-based software package for the PCR Array System using cycle threshold (Ct)-based fold-change calculations.
# Recombinant human FGF2 (R&D) and TGFβ1 (Peprotech) were reconstituted in 0.1% BSA/PBS. U0126 (Sigma), a MEK inhibitor, was reconstituted in DMSO and used at a final concentration of 10 μM. SB431542 (Sigma), a TGFBR1 kinase inhibitor, was reconstituted in DMSO and used at a final concentration of 10 μM in cell culture. Actinomycin D (Sigma), a DNA transcription suppressor, was reconstituted in acetone and used at a final concentration of 10 μg/ml in cell culture. […]
molecule,measurement,setting,value
"Cc1cccc(-c2nc(NCc3cccc(C#N)c3)sc2-c2ccc3ncnn3c2)n1 [EW-7203, 3((5-([1,2,4]triazolo[1,5-a]pyridin-6-yl)-4-(6-methylpyridin-2-yl)thiazol-2-ylamino)methyl)benzonitrile]",Endo-MT,mammary epithelial cells,inhibits
same,TGF-β1-induced Smad signaling,mammary epithelial cells,inhibits
"Cc1cccc(-c2nn3c(c2-c2ccnc4ccc(C(N)=O)cc24)CCC3)n1 [LY2157299, 4-(2-(6-methylpyridin-2-yl)-5,6-dihydro-4H-pyrrolo[1,2-b]pyrazol-3-yl)quinoline-6-carboxamide]",Tolerability,[1],well tolerated
"CCCCc1nc(Cl)c(CO)n1Cc1ccc(-c2ccccc2-c2nnn[nH]2)cc1 [Losartan, (2-butyl-4-chloro-1-{[2′-(1H-tetrazol-5-yl)biphenyl-4-yl]methyl}-1H-imidazol-5-yl)methanol]",Expression of TGF-β types I and II receptors,[2],downregulate
"Cc1cccc(-c2[nH]c(C(C)(C)C)nc2-c2ccc3nccnc3c2)n1 [SB525334, 6-[2-(1,1-Dimethylethyl)-5-(6-methyl-2-pyridinyl)-1H-imidazol-4-yl]quinoxaline]",TGF-β1-induced mRNA expression,[3],inhibits
same,TGF-β1-induced smad2/3 nuclear localization,[3],inhibits
"Cc1cccc(-c2nc(C34CCC(C(N)=O)(CC3)CC4)[nH]c2-c2ccc3c(c2)OCO3)n1 [SM16, 4-(5-(benzo[d][1,3]dioxol-5-yl)-4-(6-methylpyridin-2-yl)-1H-imidazol-2-yl)bicyclo[2.2.2]octane-1-carboxamide]",TGF-β and activin-induced Smad2/3 phosphorylation,Smad2/3 phosphorylation,blocks
N#CC(=C(/N)Sc1ccccc1N)/C(C#N)=C(\N)Sc1ccccc1N [U0126],Expression of let-7 family miRNAs,let-7 family miRNAs,decrease
FGF2: Recombinant human FGF2 (R&D),Expression of let-7 family miRNAs,let-7 family miRNAs,time dependent increase
B1,Expression of all SMC and mesenchymal markers,HUAEC,declined to pre-FRS2 knockdown levels
same,TGFβR1 and SMAD2 expression,HUAEC,fully inhibited
